Test system: 494315-158-R-J1-PDC complex spheroid growth, percent test/control
Assay: Anticancer human tumor 494315-158-R-J1-PDC patient-derived soft tissue sarcoma cell line growth inhibition [Asc]
Conditions: for IC50: curve of first compound; for viability, T/C: stronger effect = lower value
Experimental: Multicellular complex tumor spheroid response to apoptosis pathway targeting inhibitors Alrizomadlin, Pelcitoclax, and Dasminapant in combination with a variety of drugs and investigational agents in selected tumor cell lines
The MDM2 inhibitor alrizomadlin, the Bcl-2/Bcl-xL inhibitor pelcitoclax, and the IAPs inhibitor dasminapant were evaluated both individually and in combination with standard of care and investigational anticancer small molecules within a complex spheroid model of solid tumors. . Complex spheroids include a stromal component modeled by human endothelial cells (HUVEC) and fibroblasts modeled by human mesenchymal stem cells (MSCs). The concentration ranges selected for each drug and investigational agent were based upon clinically achievable concentrations if the clinical Cmax of the agent was known.
Compounds. The drugs and investigational agents: alrizomadlin (APG-115; NSC831270), pelcitoclax (APG-1252; NSC835773), dasminapant (APG-1387;NSC834197), TAK-243 (NSC785004), copanlisib (NSC809693), olaparib (NSC753686), talazoparib (NSC767125), cobimetinib (NSC 768068), eltanexor (KPT-8602, NSC 794443), abemaciclib (NSC 768073), sotorasib (NSC818433), adagrasib (NSC 831453), MRTX-1133 (NSC 836407), Iadademestat (ORY1001, NSC 806812), and RMC-4630 (NSC839698), were obtained from the NCI Developmental Therapeutics Program Chemical Repository. The FDA-approved anticancer drug set is available from the Developmental Therapeutics Program at https://dtp.cancer.gov/organization/dscb/obtaining/available plates.htm. […] The stock solutions were prepared in dimethyl sulfoxide (DMSO, Sigma-Aldrich, St. Louis, MO, cat. D2650) at 800-fold the tested concentration and stored at -70 degrees C prior to their use. All drugs and investigational agents were tested over a range starting from a high concentration at or near the clinical Cmax and decreasing in half-log increments. If the clinical Cmax for an agent had not been determined, the highest concentration tested was 10 microM.
The patient-derived cancer (PDC) cell lines include five colon adenocarcinomas: 186277-243-T-J2-PDC, 616215-338-R-J1-PDC, 439559-082-T-J2-PDC, 463943-066-T-J2-PDC, and 519858-162-T-J1-PDC; three pancreatic carcinomas: 323965-272-R-J2-PDC, 521955-158-R6-J3-PDC, and 521955-158-R2-J5-PDC; two uterine sarcomas: 327498-152-R-J2-PDC and 993429-296-R-J1-PDC; two rhabdomyosarcomas: 755483-174-R-J1-PDC and 772245-204-R-J1-PDC; two soft tissue sarcomas: 126254-015-R-J1-PDC and 494315-158-R-J1-PDC; two malignant fibrous histiocytomas: 317291-083-R-J1-PDC and 596521-263-R-J1-PDC; two breast carcinomas: 171881-019-R-J1-PDC and 885512-296-R-J2-PDC; and one ovarian carcinoma: 6556581-035-R-J-PDC were obtained from the NCI PDMR, (https://pdmr.cancer.gov). The established cell lines HSSY-2 synovial sarcoma (RRID:CVCL 8719), SYO-1 synovial sarcoma (RRID:CVCL_7146), MPNST malignant peripheral neural sheath tumor were obtained from the Sloan Kettering Institute. The following established cell lines were purchased from the American Type Culture Collection (ATCC, Manassas, VA), Sor the received from the NCI repository:, PANC-1 pancreatic carcinoma (CRL-1469, RRID:CVCL_0480), OVCAR-5 ovarian carcinoma (RRID:CVCL_1628), OVCAR-8 ovarian carcinoma (RRID:CVCL_1629), , MCF-7 breast carcinoma (CRL-12584, RRID:CVCL_0031), MDA-MB-231 breast carcinoma (CRL-12532, RRID:CVCL_0062), NCI-H1876 small cell lung carcinoma (CRL-5902, RRID:CVCL_1503), NCI-H510A small cell lung carcinoma (HTB-184, RRID:CVCL_1565), NCI-H1417 (CRL-5869, RRID:CVCL_1469), and NCI-H196 small cell lung carcinoma (CRL-5823, RRID:CVCL_1509). Dr. Peter Houghton (Greehey Children's Cancer Research Institute, University of Texas Health Science Center, San Antonio, TX) provided Rh-18 rhabdomyosarcoma (RRID:CVCL_1659). Pooled donor human umbilical vein endothelial cells (HUVEC, Lonza, cat. CC-2519) and human mesenchymal stem cells (hMSC, Lonza, cat. PT-2501) were purchased from Lonza (Walkersville, MD).
Cell Culture. […]
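Also: compound exposure lasted seven days after spheroids formed for three days.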

SMILES: Cn1ncnc1[C@H]1c2n[nH]c(=O)c3cc(F)cc(c23)N[C@@H]1c1ccc(F)cc1 + CCN1C(C(=O)NC23CCC(C(=O)O)(CC2)CC3)C(c2cccc(Cl)c2F)C2(C(=O)Nc3cc(Cl)ccc32)C12CCCCC2
- IC50 (second compound 0.03 µM): > 100 nM
- IC50 (second compound 0.0949 µM): > 100 nM
- IC50 (second compound 0.3 µM): > 100 nM
- IC50 (second compound 0.949 µM): > 100 nM
- IC50 (second compound 3 µM): > 100 nM
- viability, T/C (second compound 0.03 µM, first compound 0.000316 µM): 104%
- viability, T/C (second compound 0.03 µM, first compound 0.001 µM): 101%
- viability, T/C (second compound 0.03 µM, first compound 0.00316 µM): 86.8%
- viability, T/C (second compound 0.03 µM, first compound 0.01 µM): 78.9%
- viability, T/C (second compound 0.03 µM, first compound 0.0316 µM): 76.3%
- viability, T/C (second compound 0.03 µM, first compound 0.1 µM): 57%
- viability, T/C (second compound 0.0949 µM, first compound 0.000316 µM): 108%
- viability, T/C (second compound 0.0949 µM, first compound 0.001 µM): 93.4%
- viability, T/C (second compound 0.0949 µM, first compound 0.00316 µM): 87.1%
- viability, T/C (second compound 0.0949 µM, first compound 0.01 µM): 66.3%
- viability, T/C (second compound 0.0949 µM, first compound 0.0316 µM): 64.6%
- viability, T/C (second compound 0.0949 µM, first compound 0.1 µM): 58.2%
- viability, T/C (second compound 0.3 µM, first compound 0.000316 µM): 81.8%
- viability, T/C (second compound 0.3 µM, first compound 0.001 µM): 94.3%
- viability, T/C (second compound 0.3 µM, first compound 0.00316 µM): 75.5%
- viability, T/C (second compound 0.3 µM, first compound 0.01 µM): 76.2%
- viability, T/C (second compound 0.3 µM, first compound 0.0316 µM): 62.9%
- viability, T/C (second compound 0.3 µM, first compound 0.1 µM): 76.3%
- viability, T/C (second compound 0.949 µM, first compound 0.000316 µM): 95.3%
- viability, T/C (second compound 0.949 µM, first compound 0.001 µM): 80.1%
- viability, T/C (second compound 0.949 µM, first compound 0.00316 µM): 78.4%
- viability, T/C (second compound 0.949 µM, first compound 0.01 µM): 64%
- viability, T/C (second compound 0.949 µM, first compound 0.0316 µM): 73.5%
- viability, T/C (second compound 0.949 µM, first compound 0.1 µM): 72.1%
- viability, T/C (second compound 3 µM, first compound 0.000316 µM): 105%
- viability, T/C (second compound 3 µM, first compound 0.001 µM): 92.3%
- viability, T/C (second compound 3 µM, first compound 0.00316 µM): 67.9%
- viability, T/C (second compound 3 µM, first compound 0.01 µM): 70.9%
- viability, T/C (second compound 3 µM, first compound 0.0316 µM): 54.7%
- viability, T/C (second compound 3 µM, first compound 0.1 µM): 74.2%

Reference: PubChem BioAssay AID1963420 (Molecular Pharmacology Branch, DTP, NCI, 2024)
